# In patent publication US4159373A, “7-Acyl-3-(sulfonic acid and sulfamoyl substituted tetrazolyl thiomethyl) cephalosporins” (SmithKline Corporation, priority 1978, dated 1979):
# Where two headings read alike, the source gives them in different places.
# What was measured:
# [1] = tested on: E. coli 804; assay: MIC in vitro; type: cell-based; settings: Escherichia coli, Example 54 table, read-out: MIC
# [2] = tested on: Proteus mirabilis 444; assay: MIC in vitro; type: cell-based; settings: Example 54 table, read-out: MIC
# [3] = tested on: Kleb. pneumo. SK 4200; assay: MIC in vitro; type: cell-based, Kleb. pneumoniae; settings: Klebsiella pneumoniae
# Description: (§1) The compounds of Formula I have exceptional antibacterial activity against both Gram-positive and Gram-negative organisms. Minimum inhibitory concentrations (MIC's) ranged from 0.2 to <200 μg./ml. in in vitro testing.
# [4] = tested on: Kleb. pneumo. SK 1200; assay: MIC in vitro; type: cell-based, Kleb. pneumoniae; settings: Klebsiella pneumoniae
# Description: as §1
# [5] = tested on: Enterobacter cloacae 921; assay: MIC in vitro; type: cell-based; settings: Enterobacter cloacae, 921, Example 54 table
# [6] = tested on: Staph. aureus 674; assay: MIC in vitro; type: cell-based; settings: Staphylococcus aureus, 674, Example 54 table
# [7] = tested on: Strep. Faecalis HH 34358; assay: MIC in vitro; type: cell-based; settings: Enterococcus faecalis
# Description: as §1
# [8] = tested on: Proteus morgani 179; assay: MIC in vitro; type: cell-based
# Description: as §1
# [9] = tested on: E. coli SK 12140; assay: MIC in vitro; type: cell-based; settings: Escherichia coli
# Description: as §1
# [10] = tested on: S. aureus HH 127; assay: MIC in vitro; type: cell-based; settings: Staphylococcus aureus
# Description: as §1
# [11] = tested on: Psuedo. sp. HH 63; assay: MIC in vitro; type: cell-based, Pseudo. aeruginosa; settings: Pseudomonas aeruginosa
# Description: as §1
# [12] = tested on: Staph. aureus 671; assay: MIC in vitro; type: cell-based; settings: Staphylococcus aureus, Example 54 table
# [13] = tested on: E. coli 12140; assay: In vivo mouse protection, E. coli 12140
# [14] = tested on: Kleb. pneumoniae 982; assay: MIC in vitro; type: cell-based; settings: Klebsiella pneumoniae, Example 54 table, read-out: MIC
# [15] = tested on: Pseudo. aeruginosa 647; assay: MIC in vitro; type: cell-based; settings: Pseudomonas aeruginosa, Example 54 table, read-out: MIC
# [16] = tested on: Serra. marc ATCC 13880; assay: MIC in vitro; type: cell-based, Serratia marcescens; settings: Serratia marcescens
# Description: as §1
# [17] = tested on: Kleb. pneumo. 4200; assay: In vivo mouse protection, Kleb. pneumo. 4200; settings: sc
# [18] = tested on: Entero. aerog. ATCC 13048; assay: MIC in vitro; type: cell-based, Enterobacter aerogenes; settings: Klebsiella aerogenes
# Description: as §1
# [19] = tested on: S. villaluz; assay: MIC in vitro; type: cell-based; settings: Table 1
# Description: as §1
# [20] = tested on: Salmonella ATCC 12176; assay: MIC in vitro; type: cell-based; settings: Salmonella, ATCC12176, Table 1, read-out: MIC in vitro
# Description: as §1
# [21] = tested on: S. aureus SK 23390; assay: MIC in vitro; type: cell-based; settings: Staphylococcus aureus
# Description: as §1
# [22] = tested on: shigella HH 117; assay: MIC in vitro; type: cell-based; settings: HH117; Table 1; shigella HH 117; read-out: MIC in vitro
# Description: as §1
# [23] = tested on: E. coli HH 33779; assay: MIC in vitro; type: cell-based; settings: Escherichia coli, HH33779, Table 1; E. coli HH 33779; read-out: MIC in vitro
# Description: as §1
# [24] = tested on: Entero. cloacae HH 31254; assay: MIC in vitro; type: cell-based; settings: Enterobacter cloacae
# [25] = Table 1, Kleb. pneumo. SK 4200, read-out: MIC in vitro
# [26] = Table 1, Kleb. pneumo. SK 1200, read-out: MIC in vitro
# [27] = Table 1, Strep. Faecalis HH 34358, read-out: MIC in vitro
# [28] = Table 1, read-out: MIC in vitro
# [29] = SK23390, Table 1, S. aureus SK 23390, read-out: MIC in vitro
# [30] = Table 1, Psuedo. sp. HH 63, read-out: MIC in vitro
# [31] = Escherichia coli, 12140, po, Table 2, E. coli 12140, p.o., read-out: ED50 in vivo
# [32] = Escherichia coli, 12140, sc, Table 2, E. coli 12140, s.c., read-out: ED50 in vivo
# [33] = HH31254, read-out: MIC in vitro, Table 1
# [34] = ATCC13880, Table 1, Serra. marc ATCC 13880, read-out: MIC in vitro
# [35] = Table 2, Kleb. pneumo. 4200, s.c., read-out: ED50 in vivo
# [36] = ATCC13048, Table 1, Entero. aerog. ATCC 13048, read-out: MIC in vitro
# [37] = SK12140, read-out: MIC in vitro, Table 1, E. coli SK 12140
# [38] = HH127, Table 1, S. aureus HH 127, read-out: MIC in vitro
SMILES,"MIC [3, 25] [µg/mL]","MIC [4, 26] [µg/mL]",MIC [19] [µg/mL],"MIC [7, 27] [µg/mL]",MIC [20] [µg/mL],"MIC [8, 28] [µg/mL]","MIC [21, 29] [µg/mL]",MIC [22] [µg/mL],MIC [23] [µg/mL],"MIC [11, 30] [µg/mL]","ED50 [13, 31] [mg/kg]","ED50 [13, 32] [mg/kg]","MIC [24, 33] [µg/mL]","MIC [16, 34] [µg/mL]","ED50 [17, 35] [mg/kg]","MIC [18, 36] [µg/mL]","MIC [9, 37] [µg/mL]","MIC [10, 38] [µg/mL]",also measured
"NCc1ccc(CC(=O)NC2C(=O)N3C(C(=O)O)=C(CSc4nnnn4CS(=O)(=O)O)CSC23)cc1 (stereo not shown) [Example 54, 7-(4-Aminomethylphenylacetamido)-3-(1-sulfomethyltetrazol-5-ylthiomethyl)-3-cephem-4-carboxylic acid]",–,–,–,–,–,–,–,–,–,–,–,–,–,–,–,–,–,–,"MIC [1]: > 100 µg/mL; MIC [2]: 1.6 µg/mL; MIC ([3]; Example 54 table, Kleb. pneumoniae SK&F 4200, read-out: MIC): 0.4 µg/mL; MIC ([4]; Example 54 table, Kleb. pneumoniae SK&F 1200, read-out: MIC): 0.4 µg/mL; MIC [5]: 100 µg/mL; MIC [6]: 3.1 µg/mL; MIC ([7]; Example 54 table, Strep. faecalis HH 34358, read-out: MIC): 100 µg/mL; MIC ([8]; Example 54 table, read-out: MIC): > 100 µg/mL; MIC ([9]; SK12140, Example 54 table, E. coli SK&F 12140, read-out: MIC): 6.3 µg/mL; MIC ([10]; HH127, Example 54 table, Staph. aureus HH 127, read-out: MIC): 6.3 µg/mL; MIC ([11]; Example 54 table, Pseudo. aeruginosa HH 63, read-out: MIC): > 100 µg/mL; MIC [12]: 3.1 µg/mL; ED50 ([13]; Escherichia coli, 12140, sc, Example 54, s.c., E. coli SKF 12140, read-out: ED50): 8.7 mg/kg; MIC [14]: > 100 µg/mL; MIC [15]: > 100 µg/mL; MIC ([16]; ATCC13880, Example 54 table, Serratia marcescens ATCC 13880, read-out: MIC): > 100 µg/mL; ED50 ([17]; Example 54, s.c., K. pneumo. SKF 4200, read-out: ED50): 0.7 mg/kg; MIC ([18]; ATCC13048, Example 54 table, Enterobacter aerogenes 13048, read-out: MIC): > 100 µg/mL"
"O=C(O)C1=C(CSc2nnnn2CCCCCS(=O)(=O)O)CS[C@@H]2C(NC(=O)[C@H](O)c3ccccc3)C(=O)N12 (stereo partly drawn) [IV, 7-D-Mandelamido-3-[1-(5-sulfopentyl)tetrazol-5-ylthiomethyl]-3-cephem-4-carboxylic acid]",1.6,1.6,12.5,50,3.1,3.1,0.8,0.8,6.3,> 200,> 50,18,0.8,100,15.7,6.3,–,–,"MIC ([9]; SK12140, Table 1, E. coli SK 12140, read-out: MIC in vitro): 1.6 µg/mL; MIC ([10]; HH127, read-out: MIC in vitro, Table 1, S. aureus HH 127): 3.1 µg/mL"
"NS(=O)(=O)CCn1nnnc1SCC1=C(C(=O)O)N2C(=O)C(NC(=O)CSC(F)(F)F)C2SC1 (stereo not shown) [IX, 7-Trifluoromethylthioacetamido-3-[1-(2-sulfamoylethyl)tetrazol-5-ylthiomethyl]-3-cephem-4-carboxylic acid]",–,0.4,6.3,12.5,0.4,200,–,0.2,1.6,> 200,44,1.56,0.8,100,–,1.6,0.8,0.4,"MIC ([3]; read-out: MIC in vitro): 0.8 µg/mL; MIC ([21]; SK23390, read-out: MIC in vitro): 0.2 µg/mL"
"O=C(Cc1cccs1)NC1C(=O)N2C(C(=O)O)=C(CSc3nnnn3CCS(=O)(=O)O)CS[C@H]12 (stereo partly shown) [VI, 7-(2-Thienylacetamido)-3-[1-(2-sulfoethyl)tetrazol-5-ylthiomethyl]-3-cephem-4-carboxylic acid]",1.6,0.8,3.1,50,0.8,> 200,0.8,3.1,12.5,> 200,–,4.4,–,> 200,1.56,25,3.1,1.6,"MIC ([24]; HH31254, Table 1, read-out: MIC in vitro): 6.3 µg/mL"
